Reference: patent publication US4940789A, “10,11-dihydro-5-alkyl-12-substituted-10,5-(iminomethano)-5H-d ibenzo[a,d]cycloheptenes as neuroprotectant agents” (priority 1989, dated 1990)
Read-outs that look alike come from different tables or passages of the source.

Assays:
NMDA-induced lethality = NMDA-induced lethality in mice (survival; standard experimental test procedure); assay type: in vivo, male Swiss-albino mice (CD-1 strain); settings: for Percent of animals which survived at the dose indicated (NMDA-induced lethality): I.P.; for ED50: Mus musculus, 0.5 h; for ED50 / ED50 Inhibition of NMDA-Induced Lethality, I.P. (dose required to produce 50% survival rate): NMDA 195 mg/kg i.p., 30 min pretreatment; for IP/PO Ratio: ED50 inhibition of NMDA-induced lethality, I.P. over P.O.; for Relative potency, antagonism of NMDA-induced lethality vs ataxia (in words): traction reflex deficit model
Experimental: The mice were pretreated with the representative test compounds followed thirty minutes later with NMDA (195 mg/kg, i.p., the ED90 dose for generalized myoclonus). The mice were then observed for 30 minutes, noting the latency of onset of generalized myoclonus (uncontrollable hind leg scratching or limbs and/or torso muscle jerking with loss of righting reflex) and death. From the latter, the ED50 for survival is determined. In this standard experimental test procedure, the specific compounds tested and their activity, which representatively establish the activity for all the compounds herein, is presented in Table I as follows: […]

[1] = Traction reflex deficit (ataxia) in mice; settings: mouse, in vivo, ip, I.P., read-out: TD50 - Traction Reflex Deficit, I.P. (dose which produced the deficit in 50% of animals tested)
Excerpt: In fact, the separation between a compounds's NMDA-antagonist activity and ataxic activity (often expressed as an "efficacy ratio" of the ED50 's of these two activities) has been extensively used to evaluate its therapeutic usefulness versus its liabilities.
^@ As measured in mice. Defined as the dose which produced the defici

[2] = system: high-affinity PCP binding site in the NMDA-associated ion channel; settings: result in words; cited from earlier work
[3] = result in words; cited from earlier work
[4] = system: cell death in cerebral ischemia models; settings: result in words; cited from earlier work
[5] = ip, intraperitoneal injection, read-out: ED50 Inhibition of NMDA-Induced Lethality, I.P. (dose required to produce 50% survival rate)

Structure (SMILES) | ED50 (NMDA-induced lethality; [5]) [mg/kg] | TD50 [1] [mg/kg] | also measured
CC(=O)N1CC2(C)c3ccccc3CC1c1ccccc12 (stereo not shown) [Example 11, 10,11-Dihydro-5-methyl-10,5-(iminomethano)-5H-dibenzo[a,d]cycloheptene-12-acetamide] | – | – | Percent of animals which survived at the dose indicated (NMDA-induced lethality) (NMDA-induced lethality; at 10 mg/kg): 10%
CC12CN(Cc3ccccn3)C(Cc3ccccc31)c1ccccc12 (stereo not shown) [Example 6, 10,11-Dihydro-5-methyl-12-(2-pyridinylmethyl)-10,5-(iminomethano)-5H-dibenzo[a,d]cycloheptene] | – | – | Percent of animals which survived at the dose indicated (NMDA-induced lethality) (NMDA-induced lethality; at 20 mg/kg): 66%
CN(C)CCCN1CC2(C)c3ccccc3CC1c1ccccc12 (stereo not shown) [Example 5, 10,11-Dihydro-N,N,5-trimethyl-10,5-(iminomethano)-5H-dibenzo[a,d]cycloheptene-12-propanamine] | – | – | Percent of animals which survived at the dose indicated (NMDA-induced lethality) (NMDA-induced lethality; at 100 mg/g (so in the source)): 66%
CC(C)N1CC2(C)c3ccccc3CC1c1ccccc12 (stereo not shown) [Example 10, 10,11-Dihydro-5-methyl-12-(2-propyl)-10,5-(iminomethano)-5H-dibenzo[a,d]cycloheptene] | – | – | Percent of animals which survived at the dose indicated (NMDA-induced lethality) (NMDA-induced lethality; at 10 mg/kg): 100%
CC12CN(CCc3ccc4ccccc4n3)C(Cc3ccccc31)c1ccccc12 (stereo not shown) [Example 7, 10,11-Dihydro-5-methyl-12-[2-(2-quinolinyl)ethyl]-10,5-(iminomethano)-5H-dibenzo[a,d]cycloheptene] | > 20 | – | –
CC12CN(CCc3ccncc3)C(Cc3ccccc31)c1ccccc12 (stereo not shown) [Example 3, 10,11-Dihydro-5-methyl-12-[2-(4-pyridinyl)ethyl]10,5-(iminomethano)-5H-dibenzo[a,d]cycloheptene] | 18 | 83 | –
C[C@]12N[C@H](Cc3ccccc31)c1ccccc12 [MK-801, reference compound] | 0.19 | 0.17 | Competition for the high-affinity PCP binding site [2]: competes for the high-affinity PCP binding site; IP/PO Ratio (NMDA-induced lethality): 0.58; ED50 (NMDA-induced lethality; oral administration, read-out: ED50 Inhibition of NMDA-Induced Lethality, P.O. (dose required to produce 50% survival rate)): 0.32 mg/kg; Relative potency, antagonism of NMDA-induced lethality vs ataxia (in words) (NMDA-induced lethality): no separation; Generalization for PCP in drug discrimination [3]: generalizes for PCP; Protection against cell death in cerebral ischemia models [4]: protects against cell death in cerebral ischemia models
Cc1cccc(CCN2CC3(C)c4ccccc4CC2c2ccccc23)n1 (stereo not shown) [Example 8, 10,11-Dihydro-5-methyl-12-[2-(6-methyl-2-pyridinyl)ethyl]-10,5-(iminomethano)-5H-dibenzo[a,d]cycloheptene] | 13 | 68 | –
CC12CN(CCc3ccccn3)C(Cc3ccccc31)c1ccccc12 (stereo not shown) [Example 2, 10,11-Dihydro-5-methyl-12-[2-(2-pyridinyl)ethyl]10,5-(iminomethano)-5H-dibenzo[a,d]cycloheptene] | 9.8 | 67 | IP/PO Ratio (NMDA-induced lethality): 0.57
c1ccc(C2(N3CCCCC3)CCCCC2)cc1 [PCP, phencyclidine, reference compound] | – | 2.7 | ED50 Inhibition of NMDA-Induced Lethality, I.P. (dose required to produce 50% survival rate) (NMDA-induced lethality; intraperitoneal injection): 1.9 mg/kg; Relative potency, antagonism of NMDA-induced lethality vs ataxia (in words) (NMDA-induced lethality): approximately equipotent; Protection against cell death in cerebral ischemia models [4]: protects against cell death in cerebral ischemia models
CC12CN(CCc3cnccn3)C(Cc3ccccc31)c1ccccc12 (stereo not shown) [Example 4, 10,11-Dihydro-5-methyl-12-(2-pyrazinylethyl)-10,5-(iminomethano)-5H-dibenzo-cycloheptene] | 12 | 30 | –
CC12CN(CCc3ccccc3)C(Cc3ccccc31)c1ccccc12 (stereo not shown) [Example 9, 10,11-Dihydro-5-methyl-12-(2-phenylethyl)-10,5-(iminomethano)-5H-dibenzo[a,d]cycloheptene] | – | – | Percent of animals which survived at the dose indicated (NMDA-induced lethality) (NMDA-induced lethality; at 20 mg/kg): 17%
COc1ccc2c(c1)[C@]13CCCC[C@@H]1[C@H](C2)N(C)CC3 [Dextromethorphan, reference compound] | 21 | 45 | –
CN1CC2(C)c3ccccc3CC1c1ccccc12 (stereo not shown) [Example 1, 10,11-Dihydro-5,12-dimethyl-10,5-(iminomethano)-5H-dibenzo[a,d]cycloheptene] | 3.1 | 13 | –
CN1CC[C@@]23CCCC[C@@H]2[C@@H]1Cc1ccc(O)cc13 [Dextrorphan, dextrorphan, reference compound] | – | 29 | Efficacy ratio for antagonizing NMDA-induced lethality over ataxia (in words) (NMDA-induced lethality; comparison with reference NMDA antagonists): essentially the same as that for dextromethorphan; ED50 Inhibition of NMDA-Induced Lethality, I.P. (dose required to produce 50% survival rate) (NMDA-induced lethality; intraperitoneal injection): 13 mg/kg
